# Assays:
# T. brucei CRK1 = target: T1, T. brucei CRK1 (Trypanosoma brucei brucei, UniProt P38973); assay: Kinobead profiling, T. brucei lysate, CRK1; type: binding; conditions: T. brucei cell lysate
# T1 sequence (P38973 1-301): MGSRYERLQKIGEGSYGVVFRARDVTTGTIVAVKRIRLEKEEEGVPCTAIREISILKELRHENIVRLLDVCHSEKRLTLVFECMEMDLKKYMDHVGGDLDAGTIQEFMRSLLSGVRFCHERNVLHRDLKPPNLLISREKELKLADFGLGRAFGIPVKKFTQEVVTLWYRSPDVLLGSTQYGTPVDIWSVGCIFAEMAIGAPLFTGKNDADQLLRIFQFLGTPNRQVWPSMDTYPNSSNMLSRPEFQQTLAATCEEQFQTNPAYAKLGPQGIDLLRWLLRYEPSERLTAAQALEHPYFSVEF
# [1] = test system: human kinome in primary chronic lymphocytic leukemia cells; conditions: cited from earlier work
# CDK9 = conditions: primary chronic lymphocytic leukemia cells; cited from earlier work
# CRK7 = conditions: primary chronic lymphocytic leukemia cells; cited from earlier work
# PCSTAIRE2 = conditions: primary chronic lymphocytic leukemia cells; cited from earlier work
smiles,measurement,setting,value
CC(C)(C)c1cnc(CSc2cnc(NC(=O)C3CCNCC3)s2)o1 [BMS-387032],kinobead inhibition of CRK1,T. brucei CRK1,no inhibition
same,observed CDKs inhibited,[1],all of the seven
same,"kinobead IC50, CDK9",CDK9,submicromolar
same,"kinobead IC50, CRK7",CRK7,submicromolar
same,"kinobead IC50, PCSTAIRE2",PCSTAIRE2,submicromolar

# Reference: paper PMC3621575 (ACS Chemical Biology, 2012)
